Peptide text beside a SMILES is read from it.
Tests used:
[1] = biological target: T1, OprF (Pseudomonas aeruginosa, UniProt P13794); test: Affinity pulldown/tandem mass spectrometry of PA14 lysate; assay type: binding, Pseudomonas aeruginosa PA14; conditions: 500 mM KCl eluate, n-octyl-β-D-glucopyranoside lysate, 4 °C
T1 construct: endogenous in cells; host or cells: P. aeruginosa PA14 overnight culture, n-octyl-β-D-glucopyranoside lysate
T1 sequence (P13794 25-350): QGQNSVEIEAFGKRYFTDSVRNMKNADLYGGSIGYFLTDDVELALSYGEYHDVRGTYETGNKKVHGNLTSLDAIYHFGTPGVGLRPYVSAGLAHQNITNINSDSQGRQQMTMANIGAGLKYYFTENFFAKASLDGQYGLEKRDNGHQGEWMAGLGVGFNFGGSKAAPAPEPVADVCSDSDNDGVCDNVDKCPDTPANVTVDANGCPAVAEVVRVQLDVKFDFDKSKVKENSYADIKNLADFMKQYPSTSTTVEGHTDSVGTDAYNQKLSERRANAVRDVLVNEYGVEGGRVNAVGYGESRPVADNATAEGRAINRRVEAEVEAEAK
Description: (§1) For generation of N-104 and negative control C-95 affinity columns, 2 mg of Cys(N)-N-104 or Cys(N)-C-95 in 2 ml of 50 mM Tris (pH 8.5), 5 mM EDTA coupling buffer were incubated with an equal volume of suspended SulfoLink Coupling Resin with mixing for 3 h at room temperature. Columns were subsequently washed with 3 ml of coupling buffer followed by 2 ml of freshly prepared 50 mM L-cysteine for 2 h at room temperature for quenching and then washed with 10 ml of 1 M NaCl prior to use or storage in 0.05% sodium azide at 4 °C. Coupling efficiency was determined using fluorescence from N-104's penultimate C-terminal tryptophan as 0.65 ± 0.04 μmole per ml of resin.
(§2) Screening for PA14 proteins with N-104 affinity columns was initiated from pelleted 2.5 L overnight cultures that were washed with ice-cold 10 mM Na2HPO4, 1.8 mM KH2PO4, 2.7 mM KCl, 137 mM NaCl (pH 7.2) and lysed by sonication in 25 ml of 50 mM Tris (pH 7.5), 1 mM MgCl2, 200 mM n-octyl-β-D-glucopyranoside with protease inhibitors. Sonication involved five cycles of 15 s with 45 s rest on ice followed by vortexing on ice for 30 min before being rocked end-over-end overnight at 4 °C. After centrifugation, the supernatant was subjected to end-over-end mixing with a 3-ml pre-column of Pierce Agarose followed by equal division by protein concentration for end-over-end incubation with 1 ml N-104 or C-95 columns at 4 °C. […]

[2] = test system: PA14 transcriptome; test: RNAseq of N-104 treated PA14; assay type: cell-based, Pseudomonas aeruginosa; conditions: 20 μM N-104 versus N-80/C-25, 45 min at 35 °C, 5 × 10^8 cfu/ml
Description: For RNA extraction and sequencing of P. aeruginosa, we used diethylpyrocarbonate (DEPC) treated Eppendorf tubes (except for those used for synthetic peptide incubation). An aliquot of PA14 overnight culture grown for 3.5 to 4.0 h in LB broth to OD600 = 0.5 (5.0 × 10^8 cells) was gently pelleted (12,000g, 30 s), resuspended in 0.5 ml of 1 mM Na2HPO4, 0.18 mM KH2PO4, 0.27 mM KCl, 13.7 mM NaCl (pH 7.2) and incubated with five or 20 μM N-104, or 20 μM N-80/C-25 for 45 min at 35 °C or left untreated. After pelleting (12,000g, 5 min), cells were resuspended in 0.5 ml of TE buffer supplemented with 1 ml of RNA-protect Bacteria Reagent with 5 s of vortexing prior to incubation for 5 min at room temperature, pelleting (5000g, 10 min), and lysis initiated in 200 μl of 15 mg/ml lysozyme together with 20 μl of 2.5 mg/ml proteinase K, both in TE buffer. […] Library construction and sequencing were performed by UVA's Genome Analysis and Technology Core involving mRNA enrichment via the NEBNext rRNA Depletion Kit (Bacteria), and transcriptome sequencing on a Next Seq 500 Mid Output platform, with 150-bp paired-end reads. The range of raw reads for each sample varied from 8 to 10 million, thus ensuring an optimal depth of sequencing that was analyzed by UVA's Bioinformatics Core facility.

[3] = test system: wild-type E. coli K-12; test: Alamar Blue viability assay of wild-type E. coli K-12; assay type: cell-based, Escherichia coli; conditions: 100 μM, wild-type E. coli K-12 10^6 cfu/ml, 37 °C, hourly, n = 3
[4] = test system: YaiW; test: Affinity pulldown/tandem mass spectrometry of PA14 lysate; assay type: binding, Pseudomonas aeruginosa PA14; conditions: 500 mM KCl eluate, n-octyl-β-D-glucopyranoside lysate, 4 °C
Description: as §1, §2

[5] = test system: PA14 fed to C. elegans; assay type: in vivo, Caenorhabditis elegans
Description: L1 stage C. elegans worms on Nematode Growth Medium (NGM) plates with E. coli OP50 as a food source were cultivated at room temperature in a humidified chamber until maturation into sterile young adults ([84]), carefully washed off with M9 minimal salts and then collected by pelleting (1200g, 2 min). […] After 3 days, bacteria and debris were removed leaving 50 μl per well of worms to which 50 μl of 6 μM SYTOX Orange was added in M9 minimal salts. The next day, images were captured using both transmission and epifluorescence (excitation/detection = 535/610 nm) on an AMG EVOS FL AMF-4301 fluorescence microscope (Thermo Fisher Scientific).

Row | Structure (SMILES) | binding of outer membrane OprF to immobilized peptide [1] | effect on PA14 respiratory gene expression [2] | bacterial metabolic activity (Alamar Blue) [3] | affinity of outer membrane YaiW for immobilized peptide [4] | N-104 resistance of PA14 ΔyaiW in C. elegans survival assay ([5]; 0 or 50 μM N-104, 5 h, 10^7 cfu/ml, n = 3) | viability of C. elegans fed N-104 alone ([5]; 100 μM N-104 without PA14, 3 days) | survival of C. elegans fed peptide-treated PA14 ([5]; PA14 10^7 cfu/ml treated 5 h with 100 μM peptide (legend; method says 50 μM), fed to 50 worms for 3 days, SYTOX Orange, n = 3)
1 | C[C@H](NC(=O)CNC(=O)[C@@H](NC(=O)[C@H](CO)NC(=O)[C@H](CC(=O)O)NC(=O)[C@H](CO)NC(=O)[C@H](CO)NC(=O)[C@H](C)NC(=O)[C@H](CC(=O)O)NC(=O)[C@@H](N)CCC(=O)O)[C@@H](C)O)C(=O)N[C@@H](CC(=O)O)C(=O)N1CCC[C@H]1C(=O)N[C@@H](C)C(=O)N[C@@H](CCC(N)=O)C(=O)N[C@@H](CCC(=O)O)C(=O)N[C@@H](C)C(=O)NCC(=O)N[C@H](C(=O)N[C@@H](CO)C(=O)N[C@@H](CCCCN)C(=O)N1CCC[C@H]1C(=O)N[C@@H](CC(N)=O)C(=O)N[C@@H](CCC(=O)O)C(=O)N[C@@H](CCC(=O)O)C(N)=O)[C@@H](C)O [C-95, reference compound] (H-EDASSDSTGADPAQEAGTSKPNEE-NH2) | binds OprF | – | – | – | – | – | –
2 | CC(=O)N[C@@H](C)C(=O)N[C@@H](CCC(N)=O)C(=O)N[C@@H](CCCCN)C(=O)N[C@@H](CC(C)C)C(=O)N[C@@H](CC(C)C)C(=O)N[C@@H](CCCCN)C(=O)N[C@@H](CCCCN)C(=O)N[C@@H](Cc1ccccc1)C(=O)N[C@@H](CO)C(=O)N[C@@H](CC(C)C)C(=O)N[C@@H](CC(C)C)C(=O)N[C@@H](CCCCN)C(=O)N1CCC[C@H]1C(=O)N[C@@H](Cc1c[nH]c2ccccc12)C(=O)N[C@@H](C)C(=O)O [N-104] (Ac-AQKLLKKFSLLKPWA-OH) | – | promotes the expression of genes regulating anaerobic respiration while largely suppressing those involved in aerobic respiration | inhibitory | selective affinity | partially resistant | did not affect viability | fully survived

Source: publication PMC12147183, “Lacritin cleavage-potentiated targeting of iron - respiratory reciprocity promotes bacterial death” (The Journal of Biological Chemistry, 2025)
